From the Bradley open melting point set (2014) come the findings set out here.

`Nc1ccc(O)c2c1C(=O)c1ccccc1C2=O` [1-amino-4-hydroxyanthraquinone] returned a melting point of 208 °C.

`CC(Oc1cc(Cl)c(Cl)cc1Cl)C(=O)O` (stereo unspecified) [2-(2,4,5-trichlorophenoxy)propionic acid] yielded a melting point of 178 °C. In the case of `C(=N\c1ccccc1Nc1ccccc1/N=C/c1ccccc1)/c1ccccc1` it was 103 °C; in that of `CCCCN(CCCC)CCCC` [N,N-Dibutylbutan-1-amine], -70 °C.

Consider `O=c1[nH]c(=O)n([C@H]2C[C@H](O)[C@@H](CO)O2)cc1F` [Floxuridine], for which the melting point amounted to 150 °C. On to `O=C(O)Cc1ccc(O)c(O)c1` [3,4-dihydroxyphenylacetic acid], for which the melting point came to 129 °C.

In turn, `O=C1OC(c2ccc(O)cc2)(c2ccc(O)cc2)c2ccccc21` [Phenolphthalein] had a melting point of 262 °C. Turning to `O=C(c1ccccc1)C(c1ccccc1)(c1ccccc1)c1ccccc1` [benzopinacolone], the melting point came out at 182 °C. As for `C=CC=O` [acrolein], the melting point is -87 °C. In the case of `COC(=O)n1ccc(C)n1` [methyl 3-methyl-1H-pyrazole-1-carboxylate] it was 33 °C; in that of `CC(C)C=O` [2-methylpropanal], -65 °C. `CCc1ccccc1CC` [1,2-diethylbenzene] had a melting point of -31 °C. As for `Oc1ccc(-c2ccccc2)cc1` [Biphenyl-4-ol], the melting point was found to be 167 °C. Turning to `NC(=O)N1c2ccccc2C=Cc2ccccc21` [carbamazepine], the melting point is 190 °C. In the case of `Cc1ccccc1` [Toluene] it was -93 °C. In the case of `Nc1ccc(S(=O)(=O)Nc2ncccn2)cc1` [Sulfadiazine] it was 259 °C; in that of `CC(CN1c2ccccc2Sc2ccccc21)N(C)C` (stereo unspecified) [promethazine], 60 °C; in that of `COc1ccccc1[N+](=O)[O-]` [2-nitroanisole], 10 °C. As for `CS(=O)(=O)CCO` [2-(methylsulfonyl)ethanol], the figure is 29 °C; as for `Oc1noc2nc3ccccc3nc12` [isoxazolo[4,5-b]quinoxalin-3(2H)-one], 323 °C. `CCC(=O)c1cc(F)c(O)c(F)c1` [3',5'-difluoro-4'-hydroxypropiophenone] had a melting point of 130 °C.

In turn, `CCCCCCCCCCCC(C)O` (stereo unspecified) [2-tridecanol] had a melting point of 25 °C. As to `COC(F)(F)C(Cl)Cl` [2,2-Dichloro-1,1-difluoroethyl methyl ether], the melting point is -35 °C.

`CC(=O)Nc1ccc(O)cc1` [4-acetamidophenol] returned a melting point of 169 °C. As for `Cc1cc(F)ccc1B(O)O` [4-fluoro-2-methylbenzeneboronic acid], the figure is 200 °C; as for `Nc1cccnc1N` [2,3-diaminopyridine], 112 °C.

For the molecule `CCCCC[C@H](O)/C=C/[C@H]1[C@H](O)CC(=O)[C@@H]1C/C=C\CCCC(=O)O` [prostaglandin E2], the melting point was 67 °C. As to `C(#Cc1ccccc1)c1ccccc1` [diphenylacetylene], the melting point was determined as 60 °C. As for `C1=CCCC1` [Cyclopentene], the melting point is -135 °C. Molecule `COC(=O)c1ccc(O)cc1` [methyl_4-hydroxybenzoate] gave a melting point of 128 °C.

For the molecule `Cc1cccc(Br)c1` [3-bromotoluene], the melting point was -40 °C. For the molecule `CCCC(=O)OCC` [ethyl butyrate], the melting point was -93 °C.

Consider `CC(=O)OCC(OC(C)=O)C(OC(C)=O)C(OC(C)=O)C(OC(C)=O)C(=O)CBr` (stereo unspecified) [3,4,5,6,7-penta-O-acetyl-1-bromo-1-deoxyhept-2-ulose], for which the melting point turned out to be 124 °C.

The molecule `N#CC(c1ccccc1)N1CCOCC1` (stereo not drawn) [alpha-(4-morpholinyl)phenylacetonitrile] showed a melting point of 69 °C. As for `C/C=C\c1ccccc1` [cis-1-phenyl-1-propene], the melting point is -62 °C. With `OCc1ccc(CO)cc1` [1,4-benzenedimethanol], the melting point is 119 °C. For the molecule `O=C1C=CCCC1` [2-cyclohexene-1-one], the melting point was -53 °C. As for `COc1ccc(NC(=O)N(C)C)cc1Cl` [Metoxuron], the melting point was 127 °C. Regarding `OC(c1ccccc1)c1ccccc1` [benzhydrol], the melting point is 66 °C.

On to `CCCCCCCCCCCCCCCCCCCCCC(=O)O` [behenic acid], for which the melting point is 76 °C. In the case of `Brc1cnc2ccccc2c1` [3-bromoquinoline] it was 14 °C. With `NC(=O)C[C@H](N)C(=O)O` [L-Asparagine], the melting point was 235 °C. Molecule `COc1cc(OC)c2c(c1Cl)O[C@]1(C2=O)C(OC)CC(=O)C[C@H]1C` (stereo partly specified) [Griseofulvin] came in with a melting point of 220 °C. As for `Cc1ccc(C(C)(C)C)cc1` [1-tert-Butyl-4-methylbenzene], the melting point is -52 °C. `OB(O)c1cc2ccccc2nc1Cl` [2-chloroquinoline-3-boronic acid] registered a melting point of 146 °C.

With `O=C(O)CCc1ccccc1` [3-phenylpropionic acid], the melting point was found to be 49 °C.

`O=C(Cc1ccccc1)Cc1ccccc1` [1,3-diphenylacetone]: the melting point came to 33 °C.

As for `ClC1=C(Cl)[C@]2(Cl)C3C(Cl)C(Cl)CC3[C@@]1(Cl)C2(Cl)Cl` (stereo partly specified), the melting point is 106 °C.

Consider `Oc1c(F)c(F)c(F)c(F)c1F` [pentafluorophenol], for which the melting point worked out at 34 °C. Take `CC(O)CN` (stereo unspecified) [1-Aminopropan-2-ol]: the melting point was -2 °C. `O=C1OC(=O)C2C1C1(Cl)C(Cl)=C(Cl)C2(Cl)C1(Cl)Cl` (stereo unspecified) [chlorendic anhydride] came in with a melting point of 237 °C. In the case of `CCc1ccc(C)cc1` [4-ethyltoluene] it was -62 °C. `Cc1ccccc1Cl` [o-chlorotoluene]: the melting point is -35 °C. `C[C@]12CC[C@H]3[C@@H](CCC4=CC(=O)CC[C@@]43C)[C@@H]1CC[C@@H]2OC(=O)CCc1ccccc1` [Testosterone phenylpropanoate] came in with a melting point of 116 °C.

`O=C1Nc2ccc(Cl)cc2C(c2ccccc2Cl)=NC1O` (stereo unspecified) [Lorazepam]: the melting point stood at 166 °C. `O=C(C=C/C(=O)OCC)OCC` [diethyl_maleate] came in with a melting point of -10 °C. Regarding `CCOc1ccc(N)cc1` [p-ethoxyaniline], the melting point turned out to be 4 °C. For the molecule `CCc1nnc2cc(-c3ccccc3)[nH]n12` [3-ethyl-6-phenyl-5H-pyrazolo[5,1-c][1,2,4]triazole], the melting point amounted to 189 °C.

Regarding `C(=NNc1ccccc1)C(=NNc1ccccc1)c1cccc(C(C=NNc2ccccc2)=NNc2ccccc2)c1`, the melting point is 165 °C. For `C[C@@H](NC(=O)OCc1ccccc1)C(=O)O` [N-benzyloxycarbonyl-D-alanine], the melting point is 85 °C.

The molecule `Brc1ccc(I)cc1` [1-bromo-4-iodobenzene] showed a melting point of 91 °C. In turn, `CCOCOCC` [diethoxymethane] gave a melting point of -66 °C. The molecule `CC(=O)O[C@@]12CO[C@@H]1C[C@H](O)[C@@]1(C)C(=O)[C@H](O)C3=C(C)[C@@H](OC(=O)[C@H](O)[C@@H](NC(=O)OC(C)(C)C)c4ccccc4)C[C@@](O)([C@@H](OC(=O)c4ccccc4)[C@H]21)C3(C)C` [Docetaxel] came in with a melting point of 232 °C. For the molecule `NC(=O)C1=C(CCc2ccccc2)CCCC1` [2-(2-phenylethyl)cyclohex-1-ene-1-carboxamide], the melting point was determined as 113 °C. Take `O=C(O)c1cnc(Br)s1` [2-bromothiazole-5-carboxylic acid]: the melting point worked out at 182 °C.

`O=C(O)CCCCCC(=O)O` [Pimelic Acid] showed a melting point of 106 °C. For the molecule `Cc1sc2ccccc2c1CC1=NCCN1` [metizoline], the melting point is 156 °C.

`CC1(C(=O)O)CCCCC1` [1-Methylcyclohexanecarboxylic acid] returned a melting point of 38 °C. Consider `O=Cc1ccccc1C(=O)O` [2-carboxybenzaldehyde], for which the melting point was determined as 99 °C. For `Cc1cccc(N)c1C` [2,3-dimethylaniline], the melting point stood at 2 °C. `CSc1ccc(CC(=O)O)cc1` [4-(methylthio)phenylacetic acid] registered a melting point of 100 °C.

Regarding `C[C@H]1C[C@H]2[C@@H]3CCC4=CC(=O)C=C[C@]4(C)[C@@]3(F)[C@@H](O)C[C@]2(C)[C@@]1(O)C(=O)CO` [Betamethasone], the melting point turned out to be 232 °C.

As to `Cc1ccc(C(C)(C)C)cc1` [4-tert-butyltoluene], the melting point is -63 °C. Take `C[C@]12CCC(O)CC1CC[C@@H]1[C@@H]2CC[C@@]2(C)[C@H]1CC[C@]2(O)C#Cc1ccccc1` (stereo partly specified) [21-phenylpregn-20-yne-3,17-diol]: the melting point was found to be 122 °C.

`Nc1ccc(S(=O)(=O)Nc2ccccn2)cc1` [4-Amino-N-(pyridin-2-yl)benzenesulfonamide] showed a melting point of 192 °C.

As to `O=C1CCN(C(=O)c2ccccc2)CC1` [1-benzoyl-4-piperidone], the melting point is 55 °C. `CC(=O)SCC(Cc1ccccc1)C(=O)NCC(=O)OCc1ccccc1` (stereo unspecified) [acetorphan]: the melting point was found to be 89 °C. `CC1COC(=O)O1` (stereo unspecified) [4-Methyl-1,3-dioxolan-2-one]: the melting point is -55 °C. The molecule `O=C(O)c1ccc([N+](=O)[O-])cc1` [4-Nitrobenzoic acid] registered a melting point of 240 °C.

`CO[C@H]1C=CO[C@@]2(C)Oc3c(C)c(O)c4c(O)c(c(/C=N/N5CCN(C)CC5)c(O)c4c3C2=O)NC(=O)C(C)=CC=C[C@H](C)[C@H](O)[C@@H](C)[C@H](O)[C@H](C)[C@H](OC(C)=O)[C@@H]1C` [Rifampin] registered a melting point of 183 °C. In turn, `Cc1c(N)cccc1Cl` [3-chloro-2-methylaniline] returned a melting point of 2 °C. The molecule `O=C(Cl)c1ccc([N+](=O)[O-])cc1` [4-Nitrobenzoyl chloride] had a melting point of 75 °C. As for `Oc1ccc2ccccc2c1Br` [1-bromo-2-naphthol], the figure is 75 °C. For the molecule `COc1ccc(C(=O)O)cc1Br` [3-bromo-4-methoxybenzoic acid], the melting point stood at 220 °C. As to `CCCOC(=O)c1ccc(O)cc1` [Propyl 4-hydroxybenzoate], the melting point worked out at 96 °C. In the case of `CCOC(=O)c1cc(C)n(-c2ccc(F)cc2)c1C` [OSM-S-03] it was 64.5 °C.

For orientation: melting point means the temperature, or range, at which the solid turns liquid.
